Data from BindingDB's records for patent US11447487 (Bristol-Myers Squibb Company, 2022).

Target: Rho-associated protein kinase 2 (Homo sapiens, UniProt O75116)
Assay: In Vitro Assays
Protocol: The effectiveness of compounds of the present invention as ROCK inhibitors can be determined in a 30 μL assay containing 20 mM HEPES, pH 7.5, 20 mM MgCl2, 0.015% Brij-35, 4 mM DTT, 5 μM ATP and 1.5 μM peptide substrate (FITC-AHA-AKRRRLSSLRA-OH) (SEQ ID No. 1). Compounds were dissolved in DMSO so that the final concentration of DMSO was <2%, and the reaction was initiated with Rho kinase variants. After incubation, the reaction was terminated by the addition of EDTA and the phosphorylated and non-phosphorylated peptides separated using a LABCHIP 3000 Reader (Caliper Life Sciences). […] Compounds were tested in dose-response format, and the inhibition of kinase activity was calculated at each concentration of compound. The inhibition data were fit using a curve-fitting program to determine the IC50; i.e., the concentration of compound required to inhibit 50% of kinase activity.

Sequence of Rho-associated protein kinase 2 (O75116 whole entry): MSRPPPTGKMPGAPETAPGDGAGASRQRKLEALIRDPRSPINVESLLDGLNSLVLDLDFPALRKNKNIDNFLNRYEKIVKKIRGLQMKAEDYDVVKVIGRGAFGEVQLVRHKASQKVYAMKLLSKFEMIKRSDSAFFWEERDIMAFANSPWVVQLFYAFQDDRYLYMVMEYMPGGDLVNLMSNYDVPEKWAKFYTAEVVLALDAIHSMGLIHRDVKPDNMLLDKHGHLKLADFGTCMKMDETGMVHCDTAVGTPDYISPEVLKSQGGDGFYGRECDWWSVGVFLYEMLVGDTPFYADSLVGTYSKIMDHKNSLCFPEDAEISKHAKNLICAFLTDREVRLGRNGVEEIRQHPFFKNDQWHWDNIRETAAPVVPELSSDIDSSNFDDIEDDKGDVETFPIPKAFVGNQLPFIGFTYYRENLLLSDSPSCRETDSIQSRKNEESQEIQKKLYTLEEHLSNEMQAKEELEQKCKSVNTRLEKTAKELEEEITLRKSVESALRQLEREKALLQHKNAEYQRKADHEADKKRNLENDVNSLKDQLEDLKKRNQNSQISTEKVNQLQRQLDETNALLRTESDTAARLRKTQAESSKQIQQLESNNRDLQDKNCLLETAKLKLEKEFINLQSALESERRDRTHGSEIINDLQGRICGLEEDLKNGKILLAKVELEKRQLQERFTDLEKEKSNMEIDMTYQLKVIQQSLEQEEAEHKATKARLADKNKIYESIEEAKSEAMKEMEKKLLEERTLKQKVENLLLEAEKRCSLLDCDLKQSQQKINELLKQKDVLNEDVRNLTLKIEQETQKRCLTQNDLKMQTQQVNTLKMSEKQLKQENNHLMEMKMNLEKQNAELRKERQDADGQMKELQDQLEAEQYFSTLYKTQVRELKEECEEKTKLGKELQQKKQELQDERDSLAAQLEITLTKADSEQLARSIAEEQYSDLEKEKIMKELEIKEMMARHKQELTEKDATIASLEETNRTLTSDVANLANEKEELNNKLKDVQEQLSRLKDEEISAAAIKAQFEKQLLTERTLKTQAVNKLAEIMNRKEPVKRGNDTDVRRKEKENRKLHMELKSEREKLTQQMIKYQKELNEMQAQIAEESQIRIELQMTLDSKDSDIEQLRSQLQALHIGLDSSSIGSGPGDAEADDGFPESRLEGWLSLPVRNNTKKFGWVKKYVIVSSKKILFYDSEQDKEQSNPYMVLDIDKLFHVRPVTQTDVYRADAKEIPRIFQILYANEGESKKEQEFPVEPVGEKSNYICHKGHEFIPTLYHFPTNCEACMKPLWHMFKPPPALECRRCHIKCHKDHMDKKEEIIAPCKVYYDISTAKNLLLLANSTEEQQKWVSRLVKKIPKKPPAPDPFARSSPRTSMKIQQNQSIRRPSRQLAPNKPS

Row | SMILES | IC50
1 | NC(=O)c1cccnc1O[C@H]1CC2(C1)C[C@H](N1C(=O)NC(CCC3CCCCC3)C1=O)C2 (stereo partly drawn) [US11447487, Example 4] | 13 nM
2 | NC(=O)c1cccnc1O[C@H]1CC2(C1)C[C@H](N1C(=O)CC(Cc3ccccc3)NC1=O)C2 (stereo partly drawn) [US11447487, Example 76] | 456 nM
3 | NC(=O)c1cccnc1O[C@H]1CC2(C1)C[C@H](N1C(=O)CN(c3ccc(OC(F)(F)F)cc3)C1=O)C2 (stereo partly drawn) [US11447487, Example 86] | 6 nM
